Assay results taken from US20250154112A1, “A PREPARATION OF QUINAZOLINEDIONES AND USE THEREOF” (COUNCIL OF SCIENTIFIC AND INDUSTRIAL RESEARCH AN INDIAN …, priority 2021, published 2025).
In brackets after ≈: the same amount, converted by molar mass.

How the values were obtained:
Plasma stability assay = format: in vitro ADME; settings: 1 μM, 37° C.
Procedure: 1 mM Stock of test compound was prepared from 10 mM initial stock solution of compounds by diluting 10 μL of 10 mM stock with 90 μL of DMSO. Then 10 μL of 1 mM stock was diluted with 90 μL of DMSO to give 100 μM concentration. The frozen plasma was thawed at room temperature and centrifuged at 1400 rpm at 4° C., for 15 minutes. Approximately 90% of the clear supernatant fraction was transferred to a separate tube and was used for the assay. Final working stock of 1 μM was prepared by diluting 3 μL of 100 μM with 297 μL of plasma. Plasma containing the test compound was incubated for 120 min at 37° C. in shaker with 500 rpm. 50 μL of aliquot of sample at 0, 15, 30, 60 and 120 minutes were precipitated with 150 μL of acetonitrile containing internal standard and centrifuged at 4000 rpm at 4° C. for 20 minutes. 120 μL of supernatant was diluted with 120 μL of water and analysed by LC-MS/MS.

ATGL [1] = experiment: Western blot of ATGL level in HepG2 cells after compound treatment; format: cell-based; settings: 24 hours; for ATGL level (Western Blot): 50 nM to 5 μM dose dependent, with respect to control; for induction of ATGL (Western Blot): 5 μM
Procedure: (§1) HepG2 cells were treated with the compounds 5, 8, 11, 59, 62, 91, 94 (50 nM, 100 nM, 200 nM, 500 nM, 1 μM and 5 μM for dose dependent assays) for 24 hours. After removing media from the cells, the wells were washed with 1×PBS twice to remove any remnant media. Cells were then lysed in lysis buffer containing 50 mM Tris-HCl (pH 7.4), 100 mM NaCl, 1 mM EDTA, 1 mM EGTA, 1% Triton X-100 and protease inhibitor cocktail (Millipore, Billierica, MA, USA). Following centrifugation at 20,000 g for 20 minutes, the protein solution was extracted from the cells. Protein was estimated using Bradford assay. Bradford's reagent (BioRad) was diluted in 1:4 ratio in double distilled water. 2 μl of protein sample was added to 100 μl of the reagent and absorbance was measured at 595 nm. 30 μg of protein was diluted in lysis buffer. 1X loading buffer diluted from 5X stock containing 250 mM Tris-HCl (pH 6.8), 10% SDS, 50% glycerol, 0.1% bromophenol Blue and 10% β-mercaptoethanol was added. The protein samples were then heated at 95° C. for 10 minutes, cooled and centrifuged at 12,000 g for 2 minutes prior to loading.
(§2) For western blotting, the proteins were resolved in 10% SDS PAGE (discontinuous buffer system). 1X running buffer containing SDS, Tris Base and Glycine was used to run the gel at 80V for approximately 2 hours. Transfer was done using PVDF membrane (Millipore) having pore size of 0.45 μm. 1X transfer buffer containing Tris-Base, Glycine and 20% methanol was used for wet transfer. Transfer was done at 90V for 3 hours. Following transfer, the PVDF membrane containing the proteins were washed in 1×PBST comprising of 1×PBS and 1% Tween 20 (Sigma Aldrich). The membrane was then incubated for 1 hour at room temperature in 5% skim milk powder to block the non-specific sites. Following multiple washes with 1×PBST to wash away any remaining blocking buffer, the required primary antibody (COP1 [BethylLaboraties], ATGL [Cell Signalling Technology] or Actin[Cell Signalling Technology]) prepared with 1×PBST, 1% Bovine Serum Albumin and 0.04% Sodium Azide was added to the membrane and incubated overnight at 4° C. The next day, the membrane was again washed multiple times with 1×PBST to remove any unbound primary antibody. The membrane was then incubated with goat anti-rabbit secondary antibody (Genei) for 1 hour at room temperature and washed again for multiple times with 1×PBST. The membrane was then developed using Clarity™ ECL Western Blotting Substrate (BioRad) and viewed in ChemiDoc (BioRad).
as §1, with “62, 65,” for “62,”, “at” for “(50 nM, 100 nM, 200 nM, 500 nM, 1 μM and”, “μM” for “μM for dose dependent assays)”, “cocktail 1” for “cocktail”

COP1 = target: T1, COP1 (Homo sapiens, UniProt Q8NHY2); experiment: Western blot of COP1 level in HepG2 cells after compound treatment; format: cell-based; settings: 5 μM, 24 hours
T1 construct: endogenous in cells; host or cells: HepG2
Procedure: as §1, with “62, 65,” for “62,”, “at” for “(50 nM, 100 nM, 200 nM, 500 nM, 1 μM and”, “μM” for “μM for dose dependent assays)”, “cocktail 1” for “cocktail”
as §2

[2] = Determination of EC50 (in-vitro)
ATGL [3] = experiment: Fold change in ATGL by densitometric analysis; format: cell-based; settings: fold change of ATGL with respect to control, normalized with actin
Procedure: Densitimetric analysis was performed by image J to calculate the fold change of ATGL with respect to control. The values were normalized with actin.

[4] = Lipophilicity assay (octanol/buffer Log D); format: physicochemical; settings: pH 7.4, n-octanol/sodium phosphate buffer
Procedure: 1.56 g NaH2PO4·2H2O was dissolved in 0.5 L water in a 1 L beaker. After adjusting pH to 7.4 using NaOH solution, the volume was made up to 1 L. Equal volumes of sodium phosphate buffer (10 mM, pH 7.4) and n-octanol were added to a separation funnel and mixed thoroughly by shaking and inverting the funnel several times. The two layers were allowed to separate for overnight and then dispensed in two separate glass bottles. 10 mM stock solution was prepared in 100% DMSO and stored at 4° C. 495 μL of organic phase (1-octanol) was added to each well of a 2 mL deep well plate, followed by 495 μL of buffer and 10 μL of test substance was added. The plate was incubated for 3 hrs at room temperature on a plate shaker at 500 rpm. After incubation, the samples were allowed to equilibrate for 20 min and then centrifuged at 4000 rpm for 30 min for complete phase separation and analysed by LC-UV. Log D=Log (area of octanol/area of buffer)

[5] = Metabolic stability using human liver microsomes (HLM); format: in vitro ADME
Procedure: 1 mM stock solution of test compound was prepared in DMSO and diluted with Acetonitrile:Water (1:1) to get a 100 μM working concentration. 100 mL of Milli Q water was added to K2HPO4 (1.398 g) and KH2PO4 (0.27 g) to get final pH 7.4 solution of potassium phosphate buffer. […] The above mixture was pre incubated for 15 minutes at 37° C. After pre incubation, 32.5 μL of the mixture was added to 17.5 μL of buffer, this was incubated for 60 minutes at 37° C. [60 min Without Cofactor (NADPH)]. 16.25 μL of the pre incubated mixture and 8.75 μL of cofactor was added to 150 μL of acetonitrile containing internal standard [0 min Sample]. 62 μL of cofactor was added to remaining pre incubation mixture [Incubation mixture]. 25 μL of incubation mixture at 0, 5, 15, 30, 60 min and 60 min without cofactor were precipitated with 150 μL of acetonitrile containing internal standard, vortexed and centrifuged at 4000 rpm at 4° C. for 20 minutes. 120 μL of supernatant was diluted with 120 μL of water and analyzed by LC-MS/MS [sample preparation].

Kinetic solubility = format: physicochemical; settings: pH 7.4 phosphate buffer (PBS), aqueous buffer, kinetic from dmso stock, room temperature, 1.0% DMSO
Procedure: PBS sachet was dissolved in 0.9 L of Milli Q water and pH was adjusted to 7.4. Final volume was made up to 1 L with the water and stored at ambient temperature 21-25° C. […] 4 μL from the 50 mM stock solution were added to deep well plate containing 396 μL of pH 7.4 phosphate buffer, mixed and incubated for 24 hours at room temperature with constant mixing at 300 rpm. The plate was sealed well during the incubation process. After incubation, the samples were centrifuged for 20 min at 4000 rpm. The supernatant was analysed by HPLC-UV. The DMSO content in the sample was 1.0%. The final concentration of the compound in deep well plate was 500 μM.

T1 sequence (Q8NHY2 whole entry): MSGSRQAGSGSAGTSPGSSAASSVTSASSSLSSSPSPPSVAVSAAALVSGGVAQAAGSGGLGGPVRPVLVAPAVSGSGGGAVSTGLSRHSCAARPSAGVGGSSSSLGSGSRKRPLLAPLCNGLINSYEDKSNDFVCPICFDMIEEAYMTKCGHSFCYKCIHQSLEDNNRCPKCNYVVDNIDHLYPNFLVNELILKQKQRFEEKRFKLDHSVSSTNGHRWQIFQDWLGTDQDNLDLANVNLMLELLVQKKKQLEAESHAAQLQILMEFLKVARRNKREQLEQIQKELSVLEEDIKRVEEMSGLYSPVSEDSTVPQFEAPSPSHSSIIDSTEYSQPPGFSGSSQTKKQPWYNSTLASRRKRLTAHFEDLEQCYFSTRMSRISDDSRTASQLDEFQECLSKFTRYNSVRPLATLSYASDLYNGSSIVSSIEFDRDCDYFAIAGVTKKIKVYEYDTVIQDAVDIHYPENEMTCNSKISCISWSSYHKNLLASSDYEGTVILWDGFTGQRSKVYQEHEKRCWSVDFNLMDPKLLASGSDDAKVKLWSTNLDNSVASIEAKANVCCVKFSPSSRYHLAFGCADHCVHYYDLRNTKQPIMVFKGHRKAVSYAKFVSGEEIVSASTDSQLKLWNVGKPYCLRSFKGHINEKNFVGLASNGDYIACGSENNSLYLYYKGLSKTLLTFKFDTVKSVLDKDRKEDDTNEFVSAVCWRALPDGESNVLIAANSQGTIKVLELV

Row | SMILES | Mean % remaining at 2 hrs in human Plasma (Plasma stability assay) [%] | stabilization of COP1 (Western Blot) (COP1) | EC50 [2] [nM] | LogD @ pH 7.4 [4] | % QH (Well stirred model) [5] [%] | solubility kinetic at 24 hours (Kinetic solubility) [µg/mL] | logD [4] | ATGL level (Western Blot) (ATGL [1]) | induction of ATGL (Western Blot) (ATGL [1]) | Fold change (ATGL [3])
1 | COCCn1c(=O)c2cc(NC(=O)Nc3cccc(C(C)=O)c3)ccc2n(CCN2CCCC2)c1=O [Compound 59, 1-(3-acetylphenyl)-3-(3-(2-methoxyethyl)-2,4-dioxo-1-(2-(pyrrolidin-1-yl)ethyl)-1,2,3,4-tetrahydroquinazolin-6-yl)urea] | 32.80 | stabilize the COP1 | 209 | 2.58 | 17.46 | 124 (≈ 252 µM) |  | increased ATGL level | ability to induce ATGL | 1.18
2 | COCCn1c(=O)c2cc(NC(=O)Nc3cccc(C(C)=O)c3)ccc2n(C(C)C)c1=O [Compound 11, 1-(3-acetylphenyl)-3-(1-isopropyl-3-(2-methoxyethyl)-2,4-dioxo-1,2,3,4-tetrahydroquinazolin-6-yl)urea] | 80.80 | stabilize the COP1 | 100 | 2.67 | 40.30 | 2.8 (≈ 6.39 µM) |  | increased ATGL level | ability to induce ATGL | 1.25
3 | COCCn1c(=O)c2cc(NC(=O)Nc3cccc(C(C)=O)c3)ccc2n(CCCN2CCCCC2)c1=O [Compound 91, 1-(3-acetylphenyl)-3-(3-(2-methoxyethyl)-2,4-dioxo-1-(3-(piperidin-1-yl)propyl)-1,2,3,4-tetrahydroquinazolin-6-yl)urea] |  | stabilize the COP1 |  |  |  |  |  | increased ATGL level | ability to induce ATGL | 1.17
4 | COCCn1c(=O)c2cc(NC(=O)Nc3cccc(C(C)=O)c3)ccc2n(C)c1=O [Compound 8, 1-(3-acetylphenyl)-3-(3-(2-methoxyethyl)-1-methyl-2,4-dioxo-1,2,3,4-tetrahydroquinazolin-6-yl)urea] |  | stabilize the COP1 | 17.8 |  |  |  |  | increased ATGL level | ability to induce ATGL | 1.34
5 | COCCn1c(=O)c2cc(NC(=O)Nc3cccc(C(C)=O)c3)ccc2n(CCN2CCOCC2)c1=O [Compound 65, 1-(3-acetylphenyl)-3-(3-(2-methoxyethyl)-1-(2-morpholinoethyl)-2,4-dioxo-1,2,3,4-tetrahydroquinazolin-6-yl)urea] | 48.20 | stabilize the COP1 | 50 |  | 62.0 | 20.8 (≈ 40.8 µM) | 2.08 |  | ability to induce ATGL | 1.44

More lines, main results first:

Row | Mean % remaining at 2 hrs in human Plasma (Plasma stability assay) [%] | stabilization of COP1 (Western Blot) (COP1) | EC50 [2] [nM] | LogD @ pH 7.4 [4] | % QH (Well stirred model) [5] [%] | solubility kinetic at 24 hours (Kinetic solubility) [µg/mL] | logD [4] | SMILES | ATGL level (Western Blot) (ATGL [1]) | induction of ATGL (Western Blot) (ATGL [1]) | Fold change (ATGL [3])
6 | 1.70 |  |  |  |  |  |  | CC(C)[N+](C)(CCOC(=O)C1c2ccccc2Oc2ccccc21)C(C)C [Propantheline, reference compound] |  |  | 
7 |  |  |  | −0.04 |  |  |  | COCCc1ccc(OCC(O)CNC(C)C)cc1 (stereo not shown) [Metroprolol, reference compound] |  |  | 
